The term inhibition denotes the percentage by which the read-out fell short of the control. What is called IC50 is the concentration that inhibits the measured activity by half. High values mean weaker potency in that assay, low ones greater potency in that assay.

SMILES strings stand for the structures. The source made the active and inactive calls. The calls are words filed in the database; no cut-off is given here.

Experiment [1] has as its system Canis familiaris. As to the kind of experiment: Peak percent change in contractile force produced by the administration of 1 mg/kg intravenously in anesthetized dog. Format: functional, Canis lupus familiaris. As to conditions: route intravenous.
In experiment [2] the test system is Rattus norvegicus. The experiment is described as follows: Peak percent change in contractile force produced by the administration of 1 mg/kg intravenously in ansthetetized rat. As to conditions: route intravenous. Format: functional.
In experiment [3] the test system is Canis familiaris. As to the kind of experiment: 25% increase in left ventricular contractility (dP/dtmax) in anesthetized dog on iv administration. As to conditions: Canis lupus familiaris, Heart left ventricle. Format: functional.
The test system of experiment [4] is Rattus norvegicus. The experiment is described as follows: 25% increase in left ventricular contractility (dP/dtmax) on iv administration in anesthetized rat. As to conditions: Heart left ventricle. The experiment is classed as functional.
Experiment [5] concerns Rattus norvegicus. The experiment is described as follows: 25% increase in left ventricular contractility (dP/dtmax) after iv administration in anesthetized rat. The experiment is classed as functional. As to conditions: Heart left ventricle.
In experiment [6] the test system is Canis lupus familiaris. The experiment is described as follows: 25% increase in left ventricular contractility (dP/dtmax) after iv administration in anesthetized dog. As to conditions: Heart left ventricle.
Experiment [7] concerns Rattus norvegicus. The experiment is described as follows: 25% increase in left ventricular contractility (dP/dtmax) on iv administration in anesthetized rat; not active. The experiment is classed as functional, organism-based. As to conditions: Heart left ventricle.
Experiment [8] relates to Canis familiaris. The experiment is described as follows: Peak percent change in contractile force produced by 1 mg/kg administered intravenously in anesthetized dog. The experiment is classed as functional, Canis lupus familiaris. As to conditions: route intravenous.
Experiment [9] has as its system Rattus norvegicus. The experiment is described as follows: 25% increase in left ventricular (dP/dtmax) after iv administration in anesthetized rat; Not active at 3 mg/kg. Format: functional, organism-based. Also noted: dose 3 mg/kg. As to conditions: Heart left ventricle.
In experiment [10] the test system is Canis familiaris. As to the kind of experiment: 25% increase in left ventricular contractility (dP/dtmax) after iv administration in anesthetized dog; Not active. The experiment is classed as functional. As to conditions: Canis lupus familiaris, Heart left ventricle.
Experiment [11] relates to Canis familiaris. As to the kind of experiment: Peak percent change in contractile force produced after iv administration at 0.3 mg/kg in anesthetized dog. The experiment is classed as functional, Canis lupus familiaris.
Experiment [12] addresses T1, Phosphodiesterase 4 (Homo sapiens, UniProt P27815+Q08499+Q07343+Q08493). The experiment is described as follows: (§1) Inhibition of canine kidney Phosphodiesterase 4. The experiment is classed as protein assay. As to conditions: Canis lupus familiaris; target entry is the homologue from another species; concentration not given here.
Experiment [13] deals with Canis familiaris. The experiment is described as follows: Peak percent change in contractile force produced after iv administration at 0.3 mg/kg in ansthetetized dog. Format: functional, Canis lupus familiaris.
Experiment [14] has as its system Canis familiaris. The experiment is described as follows: 25% increase in left ventricular contractility (dP/dtmax) on iv administration in anesthetized dog. As to conditions: Canis lupus familiaris, Heart left ventricle. The experiment is classed as functional.
Experiment [15] deals with Canis familiaris. The experiment is described as follows: Peak percent change in contractile force produced by the administration of 1 mg/kg intravenously in anesthetized dog; Not active. As to conditions: Canis lupus familiaris.
The test system of experiment [16] is Canis familiaris. The experiment is described as follows: Inotropic effect in anesthetized dog. Format: functional. As to conditions: Canis lupus familiaris.
For experiment [17], the target named is T1, Phosphodiesterase 4. As to the kind of experiment: Inhibition of canine kidney Phosphodiesterase 4 at 150 uM. As to conditions: Canis lupus familiaris, target entry is the homologue from another species.
For experiment [18], the system named is Canis familiaris. The experiment is described as follows: Peak percent change in contractile force produced by the administration of 1 mg/kg intravenously in anesthetized dog; not active. Format: functional, organism-based. Also noted: dose 1 mg/kg. As to conditions: Canis lupus familiaris; at 1 mg/kg.
For experiment [19], the system named is Rattus norvegicus. As to the kind of experiment: 25% increase in left ventricular contractility (dP/dtmax) on iv administration in anesthetized rat; Not active at 3 mg/kg. Also noted: dose 3 mg/kg. Format: functional, organism-based. As to conditions: Heart left ventricle.
Experiment [20] concerns Rattus norvegicus. The experiment is described as follows: 25% increase in left ventricular contractility (dP/dtmax) on iv administration in anesthetized rat; Not active. The experiment is classed as functional, organism-based. As to conditions: Heart left ventricle.
Experiment [21] concerns Canis familiaris. As to the kind of experiment: Increased heart rate in conscious dogs on oral administration at 10 mg/kg. Format: functional, Canis lupus familiaris.
In experiment [22] the target is T1, Phosphodiesterase 4. The description is as §1. As to conditions: target entry is the homologue from another species. Format: protein assay, Canis lupus familiaris.
Experiment [23] deals with Canis familiaris. The experiment is described as follows: Peak percent change in contractile force produced after iv administration at 1 mg/kg in anesthetized dog.
Experiment [24] concerns Canis familiaris. The experiment is described as follows: Inotropic activity in anesthetized dog. Format: functional. As to conditions: Canis lupus familiaris.
The target of experiment [25] is T1, Phosphodiesterase 4. As to the kind of experiment: Inhibition of canine heart Phosphodiesterase 4. As to conditions: target entry is the homologue from another species. Format: protein assay, Canis lupus familiaris.

On to `N#Cc1c[nH]c(-c2c[nH]cn2)n1`, for which, in experiment [1], the Change was 25%.

Consider `C=Cn1ccnc1-c1nc(C#N)c[nH]1`, for which, in experiment [1], the Change came to 41%.

`Cn1ccnc1-c1ncc(C#N)n1C`: in experiment [2], the Change is reported as 13%.

The compound `N#Cc1c[nH]c(-c2nc(C#N)c[nH]2)n1` yielded an ED25 in experiment [3] of 0.18 mg/kg.

In the case of `c1c[nH]c(-c2ncc[nH]2)n1`, the ED25 in experiment [4] worked out at 0.24 mg/kg.

Take `Clc1c[nH]c(-c2nc(Cl)c[nH]2)n1`: in experiment [5], the ED25 was determined as 0.7 mg/kg.

As to `FC(F)(F)c1c[nH]c(-c2c[nH]cn2)n1`, the Change in [1] is recorded as 0%.

For `N#Cc1c[nH]c(-c2nc(Br)c[nH]2)n1`, in experiment [6], the ED25 stood at 0.2 mg/kg.

On to `NC(=O)c1c[nH]c(-c2ncc[nH]2)n1`, for which the ED25 entry in experiment [7] was “inactive”.

For `N#Cc1c[nH]c(-c2nc(Br)c(Br)[nH]2)n1`, the Change in experiment [8] amounted to 96%.

On to `Cn1ccnc1-c1nc(C#N)c[nH]1`, for which the Change in experiment [1] turned out to be 29%.

For the compound `Brc1c[nH]c(-c2ncc[nH]2)n1`, in experiment [5], the ED25 was determined as 5.5 mg/kg.

`Clc1c[nH]c(-c2ncc[nH]2)n1`: the ED25 entry in [9] was “inactive”.

For `CCn1ccnc1-c1nc(C#N)c[nH]1`, the Change in [1] is reported as 41%.

Regarding `N#Cc1c[nH]c(-c2nc(Cl)c[nH]2)n1`, the Change in experiment [8] is reported as 95%.

For `N#Cc1[nH]cnc1-c1ncc[nH]1`, the Change in experiment [1] was determined as 0%.

In [10], `Cc1c[nH]c(-c2nc(C#N)c[nH]2)n1` had an ED25 of 0.63 mg/kg.

Take `C[C@@H]1C(=O)NC2=Nc3cccc(Cl)c3CN21` [QUAZINONE]: the Change in [11] is listed as 47%.

For `Nc1cc(-c2ccncc2)c[nH]c1=O` [INAMRINONE], in experiment [12], the inhibition came to 24%. Moreover, the Change in experiment [13] is listed as 19%.

Consider `N#Cc1c[nH]c(-c2ccc(-n3ccnc3)cc2)n1`, for which the Change in experiment [1] turned out to be 17%.

The compound `N#Cc1c[nH]c(-c2nc(C(F)(F)F)c[nH]2)n1` gave an ED25 in experiment [3] of 0.33 mg/kg.

As to `CSc1c[nH]c(-c2ncc[nH]2)n1`, the Change in [1] is recorded as 4%.

Consider `N#Cc1c[nH]c(-c2nc(-c3ccccc3)c[nH]2)n1`, for which, in [14], the ED25 turned out to be 0.89 mg/kg.

Take `N#Cc1c[nH]c(-c2ccco2)n1`: the ED25 entry in [7] was “inactive”.

In the case of `c1c[nH]c(-c2nc(-c3nn[nH]n3)c[nH]2)n1`, the ED25 result in experiment [7] was “inactive”. Besides, the Change in [1] is 0%.

Turning to `O=C(O)c1c[nH]c(-c2ncc[nH]2)n1`, the ED25 result in experiment [7] was “inactive”.

Regarding `Cn1c(Cl)cnc1-c1nc(C#N)c[nH]1`, in experiment [1], the Change came to 11%.

In the case of `OCc1c[nH]c(-c2ncc[nH]2)n1`, the Change in [1] is reported as 0%.

In the case of `N#Cc1c[nH]c(-c2ccc(-c3nc(C#N)c[nH]3)cc2)n1`, the Change in [1] came to 8%.

`CN(C)Cc1ccc(-c2nc(C#N)c[nH]2)o1`: the Change result in experiment [15] is “inactive”.

On to `CSc1ccc(C(=O)c2[nH]c(=O)[nH]c2C)cc1` [ENOXIMONE], for which the ED25 in [4] was 1.4 mg/kg; in experiment [16] it was 0.46 mg/kg. Moreover, the inhibition in experiment [17] turned out to be 34%. The Change in [1] was found to be 73%.

Regarding `COc1ccc(-c2c[nH]c(-c3nc(C#N)c[nH]3)n2)cc1`, the ED25 in [3] is 0.36 mg/kg. Further, the Change in experiment [1] was determined as 106%.

On to `Cn1c(C#N)cnc1-c1ncc[nH]1`, for which the Change in [1] is on record as 3%.

As to `Cc1ccsc1-c1nc(C#N)c[nH]1`, in experiment [7], the ED25 entry is “inactive”.

Consider `N#Cc1c[nH]c(-c2csc(NC(=N)N)n2)n1`, for which, in experiment [15], the Change result was “inactive”.

With `N#Cc1c[nH]c(-c2cc[nH]n2)n1`, the ED25 entry in [7] was “inactive”. For the same compound, in [1], the Change is recorded as -4%.

Turning to `O=Cc1c[nH]c(-c2ncc[nH]2)n1`, in [9], the ED25 entry was “inactive”.

With `NCc1c[nH]c(-c2ncc[nH]2)n1`, in experiment [7], the ED25 result is “inactive”.

Take `N#Cc1c[nH]c(-c2nc(-c3ccc(C(F)(F)F)cc3)c[nH]2)n1`: the ED25 in experiment [3] came out at 0.26 mg/kg.

As for `O=Cc1c[nH]c(-c2nc(C=O)c[nH]2)n1`, the ED25 entry in [9] is “inactive”.

Take `N#Cc1c[nH]c(-c2cn[nH]c2)n1`: the ED25 entry in experiment [7] was “inactive”. Further, in experiment [18], the Change entry is “inactive”.

For `C[S+]([O-])c1c[nH]c(-c2ncc[nH]2)n1` (configuration not stated), the Change in [1] was 1%.

With `Cc1[nH]c(=O)c(C#N)cc1-c1ccncc1` [MILRINONE], the Change in experiment [13] worked out at 110%; in [1], 52%. Besides, the values for the ED25 in experiment [4] and in [16] were 0.3 mg/kg and 0.06 mg/kg, respectively.

Take `C[Si](C)(C)CCOCn1ccnc1-c1nccn1COCC[Si](C)(C)C`: in experiment [19], the ED25 entry is “inactive”.

In the case of `N#Cc1c[nH]c(-c2ccc(Br)s2)n1`, in experiment [7], the ED25 result is “inactive”.

`Brc1c[nH]c(-c2nc(Br)c[nH]2)n1`: in experiment [9], the ED25 entry was “inactive”.

For `N#Cc1c[nH]c(-c2nccn2-c2ccccc2)n1`, the Change in experiment [1] was found to be 0%.

For `N#Cc1c[nH]c(-c2cccs2)n1`, the ED25 result in experiment [7] was “inactive”.

As for `FC(F)(F)c1c[nH]c(-c2ncc[nH]2)n1`, the ED25 entry in experiment [20] was “inactive”.

As to `FC(F)(F)c1c[nH]c(-c2nc(Br)c[nH]2)n1`, the ED25 result in [9] is “inactive”.

For `Cn1cc(C#N)nc1-c1ncc[nH]1`, the ED25 in experiment [3] was found to be 0.17 mg/kg.

With `N#Cc1c[nH]c(-c2cccnc2)n1`, the ED25 entry in experiment [7] was “inactive”. For the same compound, the Change in experiment [1] turned out to be 31%.

For the compound `N#Cc1c[nH]c(-c2nccn2Cc2ccccc2)n1`, in experiment [1], the Change is 2%.

As for `COC(=O)c1c[nH]c(-c2ncc[nH]2)n1`, in experiment [7], the ED25 result was “inactive”.

As to `Cc1c[nH]c(-c2ncc[nH]2)n1`, in experiment [7], the ED25 entry was “inactive”.

Consider `N#Cc1c[nH]c(-c2ncc[nH]2)n1`, for which the “Increase in heart rate” value in experiment [21] is 45 beats min-1. Moreover, the IC50 in [22] was 339 µM; in experiment [25], 36.7 µM. Also, the Change in [23] amounted to 60%. Further, the ED25 in [24] worked out at 0.16 mg/kg.

The values above are taken from ChEMBL document CHEMBL1124950, “Synthesis and cardiotonic activity of novel biimidazoles” (J Med Chem, 1990).
